Assay [1] deals with primary human T-cells. Description: Proliferation assay after 5 days (CellTiter-Glo, CD3 stimulation; PBS counter screen). It is filed as cell-based. The following applies: CD3 stimulation; for Emax: read-out: Emax proliferation (% activation); for EC50: primary human T-cells, CellTiter-Glo after 5 days, EC50 of fitted sigmoidal curve, read-out: Tcell Proliferation CD3 EC50. An outline of the steps:
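Primary human T-cells, with or without CD3 stimulation, exposed to compounds for 5 days; cell number read as ATP by CellTiter-Glo 2.0 luminescence after 45 min equilibration and 15 min reagent incubation at room temperature. Compounds activating unstimulated cells or reducing viability were flagged.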

Assay [2] has as its system primary human T-cells.
[3] abbreviates: Homo sapiens, T-cell, 120 h, 5 days, normalized to reference compound A1 as stimulator control = 100%, DMSO neutral control.

Molecules are shown by their SMILES. Like-named read-outs stand apart in the source and are kept apart here.

Take `CC(C)(C)c1nnc(-c2cc3c(cc2F)S(=O)(=O)C[C@H](N)C(=O)N3Cc2cnn(CC3CC3)c2)o1` [Example 255, (3R)-3-amino-7-(5-tert-butyl-1,3,4-oxadiazol-2-yl)-5-[[1-(cyclopropylmethyl)pyrazol-4-yl]methyl]-8-fluoro-1,1-dioxo-2,3-dihydro-1λ^6,5-benzothiazepin-4-one]: the Emax in the assay with primary human T-cells [1] (setting [3]) was 78%. The EC50 stood at 4830 nM in the assay with primary human T-cells [1] (Homo sapiens, T-cell, 120 h) and 0.849 µM in the assay with primary human T-cells [2].

For `CC(C)(C)c1nnc(-c2cc3c(cc2F)S(=O)(=O)C[C@H](N)C(=O)N3Cc2ccc(Cl)cc2CN)o1` [Example 256, (3R)-3-amino-5-[[2-(aminomethyl)-4-chloro-phenyl]methyl]-7-(5-tert-butyl-1,3,4-oxadiazol-2-yl)-8-fluoro-1,1-dioxo-2,3-dihydro-1λ^6,5-benzothiazepin-4-one], in the assay on primary human T-cells [1] (setting [3]), the Emax amounted to 3%. Also, the EC50 in the assay on primary human T-cells [1] (Homo sapiens, T-cell, 120 h) was over 20000 nM; in the assay on primary human T-cells [2], over 20 µM.

`CC(C)(C)c1nnc(-c2cc3c(cc2F)S(=O)(=O)C[C@H](N)C(=O)N3Cc2ccc(OCCCCCCCCCCCN)cc2)o1` [Example 257, (3R)-3-amino-5-[[4-(11-aminoundecoxy)phenyl]methyl]-7-(5-tert-butyl-1,3,4-oxadiazol-2-yl)-8-fluoro-1,1-dioxo-2,3-dihydro-1λ^6,5-benzothiazepin-4-one]: the Emax with primary human T-cells [1] (setting [3]) was 142%. The EC50 in the assay on primary human T-cells [1] (Homo sapiens, T-cell, 120 h) was under 162 nM; with primary human T-cells [2], over 20 µM.

Take `CC(=O)N[C@H]1CS(=O)(=O)c2cc(F)c(-c3nnc(C(C)(C)C)o3)cc2N(Cc2ccc(Cl)cc2)C1=O` [Example 258, N-[(3R)-7-(5-tert-butyl-1,3,4-oxadiazol-2-yl)-5-[(4-chlorophenyl)methyl]-8-fluoro-1,1,4-trioxo-2,3-dihydro-1λ^6,5-benzothiazepin-3-yl]acetamide]: the Emax in the assay on primary human T-cells [1] (setting [3]) was found to be 124%. In addition, the EC50 in the assay on primary human T-cells [1] (Homo sapiens, T-cell, 120 h) turned out to be 586 nM; in the assay with primary human T-cells [2], 10.8 µM.

As to `CCC(=O)N[C@H]1CS(=O)(=O)c2cc(F)c(-c3nnc(C(C)(C)C)o3)cc2N(Cc2ccc(Cl)cc2)C1=O` [Example 259, N-[(3R)-7-(5-tert-butyl-1,3,4-oxadiazol-2-yl)-5-[(4-chlorophenyl)methyl]-8-fluoro-1,1,4-trioxo-2,3-dihydro-1λ^6,5-benzothiazepin-3-yl]propanamide], in the assay with primary human T-cells [1] (setting [3]), the Emax amounted to 159%. Besides, the EC50 in the assay with primary human T-cells [1] (Homo sapiens, T-cell, 120 h) turned out to be 345 nM; in the assay on primary human T-cells [2] it was 2.1 µM.

In the case of `CC[C@H](O)C(=O)N[C@H]1CS(=O)(=O)c2cc(F)c(-c3nnc(C(C)(C)C)o3)cc2N(Cc2ccc(Cl)cc2)C1=O` [Example 260, (2S)-N-[(3R)-7-(5-tert-butyl-1,3,4-oxadiazol-2-yl)-5-[(4-chlorophenyl)methyl]-8-fluoro-1,1,4-trioxo-2,3-dihydro-1λ^6,5-benzothiazepin-3-yl]-2-hydroxy-butanamide], in the assay with primary human T-cells [1] (setting [3]), the Emax came out at 82%. The EC50 with primary human T-cells [1] (Homo sapiens, T-cell, 120 h) is 1820 nM; in the assay on primary human T-cells [2] it was over 20 µM.

On to `CCCC(=O)N[C@H]1CS(=O)(=O)c2cc(F)c(-c3nnc(C(C)(C)C)o3)cc2N(Cc2ccc(Cl)cc2)C1=O` [Example 261, N-[(3R)-7-(5-tert-butyl-1,3,4-oxadiazol-2-yl)-5-[(4-chlorophenyl)methyl]-8-fluoro-1,1,4-trioxo-2,3-dihydro-1λ^6,5-benzothiazepin-3-yl]butanamide], for which the Emax in the assay with primary human T-cells [1] (setting [3]) worked out at 115%. Further, the EC50 was determined as 428 nM in the assay on primary human T-cells [1] (Homo sapiens, T-cell, 120 h) and 2.69 µM in the assay with primary human T-cells [2].

Regarding `CC[C@H](NC)C(=O)N[C@H]1CS(=O)(=O)c2cc(F)c(-c3nnc(C(C)(C)C)o3)cc2N(Cc2ccc(Cl)cc2)C1=O` [Example 263, (2S)-N-[(3R)-7-(5-tert-butyl-1,3,4-oxadiazol-2-yl)-5-[(4-chlorophenyl)methyl]-8-fluoro-1,1,4-trioxo-2,3-dihydro-1λ^6,5-benzothiazepin-3-yl]-2-(methylamino)butanamide], the “Emax proliferation (% activation)” value with primary human T-cells [1] (5 days, normalized to reference compound A1 as stimulator control = 100%, DMSO neutral control) came to 185 % activation. In addition, the EC50 in the assay on primary human T-cells [1] was under 162 nM; in the assay on primary human T-cells [2] it was 1.4 µM.

On to `CC(C)(C)c1nnc(-c2cc3c(cc2F)S(=O)(=O)C[C@H](NC(=O)CCN)C(=O)N3Cc2ccc(Cl)cc2)o1` [Example 264, 3-amino-N-[(3R)-7-(5-tert-butyl-1,3,4-oxadiazol-2-yl)-5-[(4-chlorophenyl)methyl]-8-fluoro-1,1,4-trioxo-2,3-dihydro-1λ^6,5-benzothiazepin-3-yl]propanamide], for which the Emax with primary human T-cells [1] (setting [3]) came out at 106%. Further, the EC50 was 2700 nM in the assay with primary human T-cells [1] (Homo sapiens, T-cell, 120 h) and 8.1 µM in the assay on primary human T-cells [2].

As to `CNCC(=O)N[C@H]1CS(=O)(=O)c2cc(F)c(-c3nnc(C(C)(C)C)o3)cc2N(Cc2ccc(Cl)cc2)C1=O` [Example 265, N-[(3R)-7-(5-tert-butyl-1,3,4-oxadiazol-2-yl)-5-[(4-chlorophenyl)methyl]-8-fluoro-1,1,4-trioxo-2,3-dihydro-1λ^6,5-benzothiazepin-3-yl]-2-(methylamino)acetamide], the Emax with primary human T-cells [1] (setting [3]) worked out at 143%. The EC50 in the assay with primary human T-cells [1] (Homo sapiens, T-cell, 120 h) is 884 nM; in the assay with primary human T-cells [2], over 20 µM.

On to `CC(C)(C)c1nnc(-c2cc3c(cc2F)S(=O)(=O)C[C@H](NC(=O)CCCN)C(=O)N3Cc2ccc(Cl)cc2)o1` [Example 267, 4-amino-N-[(3R)-7-(5-tert-butyl-1,3,4-oxadiazol-2-yl)-5-[(4-chlorophenyl)methyl]-8-fluoro-1,1,4-trioxo-2,3-dihydro-1λ^6,5-benzothiazepin-3-yl]butanamide], for which the Emax in the assay on primary human T-cells [1] (setting [3]) was 74%. Besides, the EC50 in the assay on primary human T-cells [1] (Homo sapiens, T-cell, 120 h) was 3070 nM; in the assay on primary human T-cells [2] it was 5.44 µM.

Take `CN[C@@H](C)C(=O)N[C@H]1CS(=O)(=O)c2cc(F)c(-c3nnc(C(C)(C)C)o3)cc2N(Cc2ccc(Cl)cc2)C1=O` [Example 268, (2S)—N-[(3R)-7-(5-tert-butyl-1,3,4-oxadiazol-2-yl)-5-[(4-chlorophenyl)methyl]-8-fluoro-1,1,4-trioxo-2,3-dihydro-1λ^6,5-benzothiazepin-3-yl]-2-(methylamino)propanamide]: the Emax with primary human T-cells [1] (setting [3]) amounted to 95%. Moreover, the EC50 in the assay with primary human T-cells [1] (Homo sapiens, T-cell, 120 h) was 249 nM; in the assay on primary human T-cells [2], 7.83 µM.

Turning to `CN[C@@H](CO)C(=O)N[C@H]1CS(=O)(=O)c2cc(F)c(-c3nnc(C(C)(C)C)o3)cc2N(Cc2ccc(Cl)cc2)C1=O` [Example 269, (2S)-3-hydroxy-2-(methylamino)-N-[(3R)-7-(5-tert-butyl-1,3,4-oxadiazol-2-yl)-5-[(4-chlorophenyl)methyl]-8-fluoro-1,1,4-trioxo-2,3-dihydro-1λ^6,5-benzothiazepin-3-yl]propanamide], the Emax with primary human T-cells [1] (setting [3]) worked out at 67%. The EC50 with primary human T-cells [1] (Homo sapiens, T-cell, 120 h) was 5840 nM; in the assay with primary human T-cells [2], over 10 µM.

In the case of `CC(C)(C)c1nnc(-c2cc3c(cc2Br)S(=O)(=O)C[C@H](N)C(=O)N3Cc2ccc(Cl)cc2)o1` [Example 271, (3R)-3-amino-8-bromo-7-(5-tert-butyl-1,3,4-oxadiazol-2-yl)-5-[(4-chlorophenyl)methyl]-1,1-dioxo-2,3-dihydro-1λ^6,5-benzothiazepin-4-one], the Emax in the assay on primary human T-cells [1] (setting [3]) turned out to be 91%. Also, the EC50 in the assay on primary human T-cells [1] (Homo sapiens, T-cell, 120 h) worked out at 3190 nM; in the assay with primary human T-cells [2] it was 4.81 µM.

`CC(C)(C)c1nnc(-c2cc3c(cc2O)S(=O)(=O)C[C@H](N)C(=O)N3Cc2ccc(Cl)cc2)o1` [Example 273, (3R)-3-amino-7-(5-tert-butyl-1,3,4-oxadiazol-2-yl)-5-[(4-chlorophenyl)methyl]-8-hydroxy-1,1-dioxo-2,3-dihydro-1λ^6,5-benzothiazepin-4-one]: in the assay on primary human T-cells [1] (setting [3]), the Emax worked out at 61%. Also, the EC50 was found to be 3190 nM in the assay with primary human T-cells [1] (Homo sapiens, T-cell, 120 h) and 7.21 µM in the assay on primary human T-cells [2].

With `CN(C)c1cc2c(cc1-c1nnc(C(C)(C)C)o1)N(Cc1ccc(Cl)cc1)C(=O)[C@@H](N)CS2(=O)=O` [Example 274, (3R)-3-amino-7-(5-tert-butyl-1,3,4-oxadiazol-2-yl)-5-[(4-chlorophenyl)methyl]-8-(dimethylamino)-1,1-dioxo-2,3-dihydro-1λ^6,5-benzothiazepin-4-one], the Emax in the assay on primary human T-cells [1] (setting [3]) came to 10%. Besides, the EC50 was over 20000 nM in the assay on primary human T-cells [1] (Homo sapiens, T-cell, 120 h) and over 20 µM with primary human T-cells [2].

Regarding `CC(C)(C)c1nnc(-c2cc3c(cc2N)S(=O)(=O)C[C@H](N)C(=O)N3Cc2ccc(Cl)cc2)o1` [Example 275, (3R)-3,8-diamino-7-(5-tert-butyl-1,3,4-oxadiazol-2-yl)-5-[(4-chlorophenyl)methyl]-1,1-dioxo-2,3-dihydro-1λ^6,5-benzothiazepin-4-one], in the assay with primary human T-cells [1] (setting [3]), the Emax was 108%. Moreover, the EC50 with primary human T-cells [1] (Homo sapiens, T-cell, 120 h) is 5490 nM; in the assay on primary human T-cells [2] it was 9.15 µM.

As to `Cc1cc2c(cc1-c1nnc(C(C)(C)C#N)o1)N(Cc1ccc(Cl)cc1)C(=O)[C@@H](N)CS2(=O)=O` [Example 276, 2-[5-[(3R)-3-amino-5-[(4-chlorophenyl)methyl]-8-methyl-1,1,4-trioxo-2,3-dihydro-1λ^6,5-benzothiazepin-7-yl]-1,3,4-oxadiazol-2-yl]-2-methyl-propanenitrile], in the assay with primary human T-cells [1] (setting [3]), the Emax was determined as 96%. The EC50 in the assay on primary human T-cells [1] (Homo sapiens, T-cell, 120 h) worked out at 2730 nM; in the assay with primary human T-cells [2] it was 1.06 µM.

Turning to `Cc1cc2c(cc1-c1nnc(C(C)C#N)o1)N(Cc1ccc(Cl)cc1)C(=O)[C@@H](N)CS2(=O)=O` (stereo partly drawn) [Example 277, 2-[5-[(3R)-3-amino-5-[(4-chlorophenyl)methyl]-8-methyl-1,1,4-trioxo-2,3-dihydro-1λ^6,5-benzothiazepin-7-yl]-1,3,4-oxadiazol-2-yl]propanenitrile], in the assay on primary human T-cells [1] (setting [3]), the Emax amounted to 59%. For the same molecule, the EC50 was found to be 8220 nM in the assay with primary human T-cells [1] (Homo sapiens, T-cell, 120 h) and 6.94 µM in the assay with primary human T-cells [2].

On to `CCn1cc(-c2cc3c(cc2F)S(=O)(=O)C[C@H](N)C(=O)N3Cc2ccc(Cl)cc2)cn1` [Example 279], for which the Emax with primary human T-cells [1] (setting [3]) was determined as 90%. Also, the EC50 in the assay with primary human T-cells [1] (Homo sapiens, T-cell, 120 h) was 5340 nM; in the assay with primary human T-cells [2], 0.47 µM.

The record behind these values is US20240368150A1 (Hoffmann-La Roche Inc., priority 2021, published 2024).
